Laboratory results as given in the NIST ThermoML archive (doi:10.1016/j.tca.2012.08.011).
Numbers after ± are expanded uncertainties.

Experiment: xn = mol fraction of the nth substance listed
Settings: 101 kPa, Liquid; for speed of sound: Linear variable-path acoustic interferometer; for mass density: Vibrating tube method

NC1CCCCC1 [cyclohexylamine] + C1CCCCC1
Settings	mass density [kg/m3]	speed of sound [m/s]
293.15 K, x1 = 0.0545	782.87 ± 0.12	1282.7 ± 1.4
293.15 K, x1 = 0.1032	786.84 ± 0.12	1287.2 ± 1.4
293.15 K, x1 = 0.1514	790.9 ± 0.12	1291.9 ± 1.4
293.15 K, x1 = 0.204	795.42 ± 0.11	1298 ± 1.4
293.15 K, x1 = 0.2496	799.41 ± 0.11	1303.5 ± 1.4
293.15 K, x1 = 0.3052	804.34 ± 0.11	1310.7 ± 1.4
293.15 K, x1 = 0.3467	808.08 ± 0.11	1316.6 ± 1.4
293.15 K, x1 = 0.3967	812.57 ± 0.11	1323.8 ± 1.4
293.15 K, x1 = 0.4025	813.08 ± 0.11	1324.5 ± 1.4
293.15 K, x1 = 0.4478	817.22 ± 0.11	1331.2 ± 1.4
293.15 K, x1 = 0.4992	821.91 ± 0.11	1339.2 ± 1.5
293.15 K, x1 = 0.5538	826.9 ± 0.11	1348.3 ± 1.5
293.15 K, x1 = 0.6495	835.66 ± 0.11	1364.5 ± 1.5
293.15 K, x1 = 0.6996	840.25 ± 0.11	1373.5 ± 1.5
293.15 K, x1 = 0.7535	845.15 ± 0.11	1383.2 ± 1.5
293.15 K, x1 = 0.8071	850.03 ± 0.12	1393 ± 1.5
293.15 K, x1 = 0.8555	854.41 ± 0.12	1402.2 ± 1.5
293.15 K, x1 = 0.8959	858.06 ± 0.12	1410.1 ± 1.5
293.15 K, x1 = 0.9501	862.93 ± 0.12	1420.6 ± 1.6
293.15 K, x1 = 1	867.39 ± 0.12	1430.5 ± 1.6
298.15 K, x1 = 0.0545	778.17 ± 0.12	1257.9 ± 1.4
298.15 K, x1 = 0.1032	782.14 ± 0.12	1262.6 ± 1.4
298.15 K, x1 = 0.1514	786.2 ± 0.12	1267.6 ± 1.4
298.15 K, x1 = 0.204	790.73 ± 0.12	1273.8 ± 1.4
298.15 K, x1 = 0.2496	794.7 ± 0.12	1279.4 ± 1.4
298.15 K, x1 = 0.3052	799.64 ± 0.12	1286.8 ± 1.4
298.15 K, x1 = 0.3467	803.36 ± 0.11	1293 ± 1.4
298.15 K, x1 = 0.3967	807.88 ± 0.11	1300.2 ± 1.4
298.15 K, x1 = 0.4025	808.4 ± 0.11	1300.9 ± 1.4
298.15 K, x1 = 0.4478	812.54 ± 0.11	1307.8 ± 1.4
298.15 K, x1 = 0.4992	817.25 ± 0.11	1315.9 ± 1.4
298.15 K, x1 = 0.5538	822.24 ± 0.11	1325 ± 1.4
298.15 K, x1 = 0.6495	831.02 ± 0.11	1341.3 ± 1.5
298.15 K, x1 = 0.6996	835.61 ± 0.12	1350.4 ± 1.5
298.15 K, x1 = 0.7535	840.54 ± 0.12	1360.5 ± 1.5
298.15 K, x1 = 0.8071	845.43 ± 0.12	1370.4 ± 1.5
298.15 K, x1 = 0.8555	849.81 ± 0.12	1379.6 ± 1.5
298.15 K, x1 = 0.8959	853.48 ± 0.12	1387.7 ± 1.5
298.15 K, x1 = 0.9501	858.37 ± 0.12	1398.5 ± 1.5
298.15 K, x1 = 1	862.85 ± 0.12	1408.8 ± 1.6
303.15 K, x1 = 0.0545	773.44 ± 0.12	1233.6 ± 1.3
303.15 K, x1 = 0.1032	777.42 ± 0.12	1238.1 ± 1.4
303.15 K, x1 = 0.1514	781.48 ± 0.12	1243.5 ± 1.4
303.15 K, x1 = 0.204	786.03 ± 0.12	1249.7 ± 1.4
303.15 K, x1 = 0.2496	790.01 ± 0.12	1255.4 ± 1.4
303.15 K, x1 = 0.3052	794.94 ± 0.12	1263.2 ± 1.4
303.15 K, x1 = 0.3467	798.67 ± 0.12	1269 ± 1.4
303.15 K, x1 = 0.3967	803.19 ± 0.12	1276.7 ± 1.4
303.15 K, x1 = 0.4025	803.71 ± 0.12	1277.4 ± 1.4
303.15 K, x1 = 0.4478	807.85 ± 0.12	1284.4 ± 1.4
303.15 K, x1 = 0.4992	812.59 ± 0.12	1292.7 ± 1.4
303.15 K, x1 = 0.5538	817.57 ± 0.12	1301.8 ± 1.4
303.15 K, x1 = 0.6495	826.37 ± 0.12	1318.5 ± 1.5
303.15 K, x1 = 0.6996	830.97 ± 0.12	1327.6 ± 1.5
303.15 K, x1 = 0.7535	835.93 ± 0.12	1337.7 ± 1.5
303.15 K, x1 = 0.8071	840.82 ± 0.12	1347.9 ± 1.5
303.15 K, x1 = 0.8555	845.22 ± 0.12	1357.2 ± 1.5
303.15 K, x1 = 0.8959	848.9 ± 0.12	1365.3 ± 1.5
303.15 K, x1 = 0.9501	853.81 ± 0.12	1376.5 ± 1.5
303.15 K, x1 = 1	858.31 ± 0.12	1387.3 ± 1.5
308.15 K, x1 = 0.0545	768.69 ± 0.12	1209.3 ± 1.3
308.15 K, x1 = 0.1032	772.67 ± 0.12	1213.9 ± 1.3
308.15 K, x1 = 0.1514	776.74 ± 0.12	1219.6 ± 1.3
308.15 K, x1 = 0.204	781.3 ± 0.12	1225.8 ± 1.3
308.15 K, x1 = 0.2496	785.28 ± 0.12	1231.6 ± 1.4
308.15 K, x1 = 0.3052	790.22 ± 0.12	1239.7 ± 1.4
308.15 K, x1 = 0.3467	793.96 ± 0.12	1245.6 ± 1.4
308.15 K, x1 = 0.3967	798.48 ± 0.12	1253.5 ± 1.4
308.15 K, x1 = 0.4025	799.01 ± 0.12	1254.4 ± 1.4
308.15 K, x1 = 0.4478	803.16 ± 0.12	1261.5 ± 1.4
308.15 K, x1 = 0.4992	807.91 ± 0.12	1269.9 ± 1.4
308.15 K, x1 = 0.5538	812.89 ± 0.12	1279 ± 1.4
308.15 K, x1 = 0.6495	821.73 ± 0.12	1295.7 ± 1.4
308.15 K, x1 = 0.6996	826.34 ± 0.12	1305 ± 1.4
308.15 K, x1 = 0.7535	831.31 ± 0.12	1315.5 ± 1.5
308.15 K, x1 = 0.8071	836.22 ± 0.12	1325.6 ± 1.5
308.15 K, x1 = 0.8555	840.63 ± 0.12	1334.9 ± 1.5
308.15 K, x1 = 0.8959	844.32 ± 0.12	1343.1 ± 1.5
308.15 K, x1 = 0.9501	849.24 ± 0.12	1354.7 ± 1.5
308.15 K, x1 = 1	853.76 ± 0.12	1366 ± 1.5
313.15 K, x1 = 0.0545	763.91 ± 0.13	1185.5 ± 1.3
313.15 K, x1 = 0.1032	767.89 ± 0.12	1189.8 ± 1.3
313.15 K, x1 = 0.1514	771.98 ± 0.12	1195.5 ± 1.3
313.15 K, x1 = 0.204	776.54 ± 0.12	1202 ± 1.3
313.15 K, x1 = 0.2496	780.53 ± 0.12	1207.9 ± 1.3
313.15 K, x1 = 0.3052	785.49 ± 0.12	1216.3 ± 1.3
313.15 K, x1 = 0.3467	789.24 ± 0.12	1222.2 ± 1.4
313.15 K, x1 = 0.3967	793.77 ± 0.12	1230.3 ± 1.4
313.15 K, x1 = 0.4025	794.29 ± 0.12	1231 ± 1.4
313.15 K, x1 = 0.4478	798.45 ± 0.12	1238.5 ± 1.4
313.15 K, x1 = 0.4992	803.21 ± 0.12	1247 ± 1.4
313.15 K, x1 = 0.5538	808.21 ± 0.12	1256.3 ± 1.4
313.15 K, x1 = 0.6495	817.07 ± 0.12	1273.3 ± 1.4
313.15 K, x1 = 0.6996	821.7 ± 0.12	1282.6 ± 1.4
313.15 K, x1 = 0.7535	826.67 ± 0.12	1292.9 ± 1.4
313.15 K, x1 = 0.8071	831.61 ± 0.12	1303.4 ± 1.5
313.15 K, x1 = 0.8555	836.02 ± 0.12	1312.8 ± 1.5
313.15 K, x1 = 0.8959	839.74 ± 0.12	1321.1 ± 1.5
313.15 K, x1 = 0.9501	844.68 ± 0.13	1332.8 ± 1.5
313.15 K, x1 = 1	849.23 ± 0.13	1344.5 ± 1.5
318.15 K, x1 = 0.0545	759.09 ± 0.13	1162.1 ± 1.3
318.15 K, x1 = 0.1032	763.09 ± 0.13	1166.2 ± 1.3
318.15 K, x1 = 0.1514	767.19 ± 0.12	1171.9 ± 1.3
318.15 K, x1 = 0.204	771.77 ± 0.12	1178.7 ± 1.3
318.15 K, x1 = 0.2496	775.77 ± 0.12	1184.7 ± 1.3
318.15 K, x1 = 0.3052	780.74 ± 0.12	1193.1 ± 1.3
318.15 K, x1 = 0.3467	784.5 ± 0.12	1199.2 ± 1.3
318.15 K, x1 = 0.3967	789.02 ± 0.12	1207.3 ± 1.3
318.15 K, x1 = 0.4025	789.56 ± 0.12	1208.2 ± 1.3
318.15 K, x1 = 0.4478	793.71 ± 0.12	1215.8 ± 1.4
318.15 K, x1 = 0.4992	798.49 ± 0.12	1224.5 ± 1.4
318.15 K, x1 = 0.5538	803.51 ± 0.12	1233.9 ± 1.4
318.15 K, x1 = 0.6495	812.4 ± 0.12	1251.1 ± 1.4
318.15 K, x1 = 0.6996	817.05 ± 0.12	1260.4 ± 1.4
318.15 K, x1 = 0.7535	822.04 ± 0.12	1270.9 ± 1.4
318.15 K, x1 = 0.8071	827 ± 0.12	1281.5 ± 1.4
318.15 K, x1 = 0.8555	831.42 ± 0.12	1290.9 ± 1.5
318.15 K, x1 = 0.8959	835.15 ± 0.12	1299.2 ± 1.5
318.15 K, x1 = 0.9501	840.12 ± 0.13	1311.1 ± 1.5
318.15 K, x1 = 1	844.68 ± 0.13	1323.1 ± 1.5
323.15 K, x1 = 0.0545	754.26 ± 0.13	1138.5 ± 1.3
323.15 K, x1 = 0.1032	758.27 ± 0.13	1142.7 ± 1.3
323.15 K, x1 = 0.1514	762.37 ± 0.13	1148.4 ± 1.3
323.15 K, x1 = 0.204	766.97 ± 0.13	1155.2 ± 1.3
323.15 K, x1 = 0.2496	770.99 ± 0.13	1161.4 ± 1.3
323.15 K, x1 = 0.3052	775.97 ± 0.12	1169.9 ± 1.3
323.15 K, x1 = 0.3467	779.75 ± 0.12	1176.2 ± 1.3
323.15 K, x1 = 0.3967	784.29 ± 0.12	1184.5 ± 1.3
323.15 K, x1 = 0.4025	784.82 ± 0.12	1185.4 ± 1.3
323.15 K, x1 = 0.4478	788.97 ± 0.12	1193.2 ± 1.3
323.15 K, x1 = 0.4992	793.75 ± 0.12	1202 ± 1.3
323.15 K, x1 = 0.5538	798.79 ± 0.12	1211.6 ± 1.4
323.15 K, x1 = 0.6495	807.72 ± 0.12	1228.8 ± 1.4
323.15 K, x1 = 0.6996	812.4 ± 0.12	1238.3 ± 1.4
323.15 K, x1 = 0.7535	817.4 ± 0.12	1248.9 ± 1.4
323.15 K, x1 = 0.8071	822.37 ± 0.12	1259.4 ± 1.4
323.15 K, x1 = 0.8555	826.82 ± 0.13	1269.2 ± 1.4
323.15 K, x1 = 0.8959	830.56 ± 0.13	1277.6 ± 1.5
323.15 K, x1 = 0.9501	835.56 ± 0.13	1289.6 ± 1.5
323.15 K, x1 = 1	840.14 ± 0.13	1301.8 ± 1.5
